# Source: US4835157A, “Thieno- and furopyrimidine-2,4-dione piperidine derivatives as serotonin antagonists and alpha adrenergic blocking agents” (Ortho Pharmaceutical Corporation, priority 1988, dated 1989)
# Where two headings read alike, the source gives them in different places.
# Experiments:
# 5HT1A receptor = target: T1, 5HT1A receptor (Rattus norvegicus, UniProt P19327); experiment: Brain Serotonin (5HT1A) radioreceptor Assay (3H-8-OH DPAT displacement, rat frontal cortex membranes); type: binding; conditions: for inhibition at 1 µM: read-out: Brain 5-HT1 Receptor % displaced (% inhibition)
# T1 construct: Membrane fragments were prepared from prefrontal cortex; from tissue; host or cells: prefrontal/frontal cortex of female rats (about 150 g), membrane fragments
# T1 sequence (P19327 1-422): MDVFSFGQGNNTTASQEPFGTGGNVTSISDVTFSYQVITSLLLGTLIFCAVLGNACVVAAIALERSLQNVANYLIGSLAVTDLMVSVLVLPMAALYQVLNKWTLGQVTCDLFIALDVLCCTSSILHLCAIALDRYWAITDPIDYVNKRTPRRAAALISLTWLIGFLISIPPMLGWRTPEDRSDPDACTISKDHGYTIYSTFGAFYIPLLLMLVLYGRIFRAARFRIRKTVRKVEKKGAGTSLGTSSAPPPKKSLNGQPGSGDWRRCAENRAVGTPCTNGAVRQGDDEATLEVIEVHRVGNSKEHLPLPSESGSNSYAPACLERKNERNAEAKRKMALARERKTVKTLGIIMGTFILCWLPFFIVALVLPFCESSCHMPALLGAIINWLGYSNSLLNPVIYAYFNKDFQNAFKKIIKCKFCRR
# Description: Brain Serotonin (5HT1A) radioreceptor Assay
# The text objects of this procedure were rat frontal cortex membranes. Membrane fragments were prepared from prefrontal cortex disected from brains obtained from female rats (≈150 g). The 5HT1A sites were labeled with ^3 H-8-OH dipropylaminotetralin (8-OH-DPAT). Membrane fragments, ^3 H-8-OH DPAT, TRIS buffer (pH 7.4) and unlabeled compound were incubated for 10 minutes at 37° C. and then for 10 minutes at 4° C. Separation of bound from unbound ^3 H-8-OH DPAT was performed by vacuum filtration on a glass fiber disc. The ability of a compound to compete with ^3 H-8-OH DPAT for binding sites is a measure of the affinity of the compound for the 5HT1A receptor. Specific binding was determined by the difference between total counts bound and the counts bound in the presence of […] 5-hydroxytryptamine.
# [1] = test system: Serotonin-Induced Smooth Muscle Contractions (rabbit thoracic aorta); experiment: Inhibition of Serotonin-Induced Smooth Muscle Contractions (isolated thoracic aorta strips); type: cell-based; conditions: concentration shifting the serotonin dose curve 10x to the right, 10 min preincubation, read-out: 5-HT-Induced Smooth Muscle Contraction DR10
# Description: Inhibition of Serotonin-Induced Smooth Muscle Contractions
# The test objects of this Example were canines and rabbits. Rabbits were sacrificed by T-61 injection and the thoracic aorta was removed immediately. The aorta was placed in warmed, oxygenated Krebs-Henseleit buffer. After the tissue was cleaned, a 2-3 mm wide strip was cut helically from each aorta. A strip of approximately 5 cm was suspended in Krebs-Henseleit buffer at 37° C. in a 25 ml tissue bath and the tissues equilibrated at an initial resting tension of 4 g for 90-120 minutes. An initial serotonin dose curve, 0.01-10 μM was then done on each tissue, followed by a 60 minute washout and reequilibration. The test drug was then added for a 10 minute preincubation and another serotonin dose curve was done using 0.01-100 μM.
# Results are expressed as DR10 values. This is the concentration of the compound required to shift the serotonin dose curve 10x to the right, i.e., the concentration of antagonist at which the concentration of serotonin required for 50% maximal contraction is increased ten-fold.
# [2] = test system: serotonin-induced platelet aggregation; experiment: Platelet Aggregation Assay (serotonin-induced); type: cell-based; conditions: human plasma, serotonin 5 μM
# Description: Platelet Aggegation Assay
# Human blood was collected into tubes containing sodium citrate. The plasma was separated by centrifugation and was used as the source of platelets. Serotonin (5 μM) was used as the agonist to induce platelet aggregation. A control aggregation curve (as measured by the decrease in absorbance in transmitted light) was obtained in the presence of serotonin and in the absence of test compound. The test compound was added to an identical sample in a cuvette for one minute before addition of serotonin to yield the experimental curve.
# [3] = test system: alpha1 adrenergic receptor; experiment: Alpha1 Blockade in vivo (inhibition of phenylephrine pressor response); design: species or system spontaneously hypertensive rats (SHR); conditions: anesthetized, vagotomized SHR; i.v.
# Description: The potency of these compounds as alpha1 adrenergic antagonists was determined using the following procedure: adult male spontaneously hypertensive rats (SHR) were anesthetized and bilaterally vagotomized. A carotid artery and jugular vein were cannulated for monitoring mean arterial blood pressure and drug administration, respectively. The percent inhibition of alpha1 adrenergic receptor activation was quantified by measuring pressor responses to phenylephrine before and after antagonist treatment. […] Compounds were tested to the limits of their solubility for intravenous administration.
# serotonin receptors = experiment: Inhibition of 5-HTP-Induced Head Twitching; type: in vivo; conditions: male CD1 mice; for Inhibit. of 5-HTP-Head Twitch ED50: 5-HTP 160 mg/kg i.v. after one hour
# Description: Inhibition of 5-HTP-Induced Head Twitching
# This test detects compounds with antagonistic activity of serotonin receptors in vivo, and is a modified procedure of Corne, Pickering and Warner, Brit. J. Pharmacol. 20, 106 (1963). Groups of male CD1 mice were fasted overnight but allowed water ad libitum. They were deprived of water during the course of the experiment. The mice were weighed and treated orally or parenterally with the test compound in a dose volume of 10 ml/kg. Doses of test substance were calculated based upon the active compound. Substances for oral administration were dissolved or suspended in a 0.5% aqueous methylcellulose (15 centipoises) vehicle containing 4 ml of Tween 80/l.
# A dose of 160 mg/kg of L-5-hydroxytryptophan (5-HTP) was administered i.v. in a dose volume of 5 ml/kg after one hour. The test mouse was restrained in a rodent restrainer that allowed the tail to extend out the back. The tail was then placed in tepid (but not scalding) water for approximately 10 seconds to soften the skin and dilate the tail vein. A 1 ml syringe and 25 gauge (5/8 inch) needle was used to administer the 5-HTP solution into one of the lateral tail veins.
# A timer was started after dosing with 5-HTP to the first animal of the test group. […] A head twitch involves the head, neck and ears and has the appearance of an exaggerated pinal reflex. The number of head twitches for each individual vehicle-treated mouse were recorded to establish a historical baseline.
# The active compounds in the test block the twitch response (the response rated all or none).
# 5HT2 [4] = target: T2, 5HT2 (Rattus norvegicus, UniProt P14842); experiment: Brain Serotonin (5-HT2) Radioreceptor Assay (3H-ketanserin displacement, rat frontal cortex membranes); type: binding; design: dissected from brains obtained from female rats; from tissue; host or cells: frontal cortex of female rats (about 150 g), membrane fragments; conditions: 15 min at 37° C
# Description: Brain Serotonin (5-HT2) Radioreceptor Assay
# The test objects of this Example were rat frontal cortex membranes. Mebrane fragments were prepared from the frontal cortex dissected from brains obtained from female rats (≈150 g). […] Compound bound to the receptor site was separated from the remaining unbound compound by vacuum filtration. […] Specific binding was determined by the difference between total counts bound and counts bound in the presence of 10^-6 M methysergide.
# 5HT2 [5] = target: T2, 5HT2; experiment: 5HT2 Blockade in vivo (antagonism of 5HT induced pressor responses); design: Spontaneously hypertensive rats were anesthetized with sodium pentobarbital; from tissue; host or cells: whole animal: anesthetized spontaneously hypertensive rats (vasculature); species or system spontaneously hypertensive rats; conditions: for ED50: rat, iv, read-out: 5-HT-Induced Pressor Response ED50; for 5-HT-Induced Pressor Response ED50: anesthetized SHR, 5HT 100 μg/kg i.v., cumulative doses of antagonist
# Description: Antagonism of 5HT induced pressor responses was used to assess 5HT2 blockade in vivo. Spontaneously hypertensive rats were anesthetized with sodium pentobarbital (50 mg/kg, i.p.). The right carotid artery and vein were cannulated for pressure recording and drug injection, respectively. The trachea was cannulated, the rat placed on a respirator and ventilated with room air at 50-60 breaths/minute. Rats were pretreated with prazosin hydrochloride (1 mg/kg, i.v., blous) and pentolinium tartrate (5 mg/kg, i.v., bolus). After 10 minutes equilibration, the rat was challenged with 5HT (100 μg/kg) which elevates mean arterial pressure (MAP) 60-100 mmHg; non-responsive rats were discarded.
# After a baseline had been reestablished, bolus injections of 5HT (100 μg/kg, i.v.) were given and the MAP responses were evaluated both pre- and post-drug administration. 5HT challenges were repeated 10 minutes after each dose of antagonist. Up to three cumulative doses of the antagonist were given to a single animal.
# [6] = test system: Spontaneously Hypertensive Rats (SHR); experiment: Antihypertensive Activity in Spontaneously Hypertensive Rats (SHR); type: in vivo, rat; conditions: @ 5 mg/kg p.o., 4 h monitoring
# Description: Antihypertensive Activity in Spontaneously Hypertensive Rats (SHR)
# Antihypertensive activity was assessed using the following procedure. Adult male SHR were surgically prepared with arterial cannuli under light ether anesthesia and given 60-90 minute post-surgical recovery. Mean arterial pressure (MAP) was continuously monitored via the arterial line. After baseline MAP was recorded, groups of 3-6 SHR received a single dose of drug or vehicle (0.5% methylcellulose) administered by gavage at doses of 1 to 5 mg/kg.MAP was monitored for four hours post-dosing.
# Maximal changes in MAP were reported.
# T2 sequence (P14842 whole entry, the tested form may be a part): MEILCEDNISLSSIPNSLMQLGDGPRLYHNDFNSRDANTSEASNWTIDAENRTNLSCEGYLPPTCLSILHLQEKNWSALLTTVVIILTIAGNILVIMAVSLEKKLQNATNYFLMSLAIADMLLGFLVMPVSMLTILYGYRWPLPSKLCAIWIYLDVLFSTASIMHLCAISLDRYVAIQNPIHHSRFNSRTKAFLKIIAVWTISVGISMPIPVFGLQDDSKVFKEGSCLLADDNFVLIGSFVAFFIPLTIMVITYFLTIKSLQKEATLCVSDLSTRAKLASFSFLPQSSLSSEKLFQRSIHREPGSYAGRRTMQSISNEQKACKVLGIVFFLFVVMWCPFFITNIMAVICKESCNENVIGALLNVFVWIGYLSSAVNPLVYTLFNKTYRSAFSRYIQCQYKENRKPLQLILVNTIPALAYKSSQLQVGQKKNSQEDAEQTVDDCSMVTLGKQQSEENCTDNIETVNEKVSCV
Compound,inhibition at 1 µM (5HT1A receptor; 3H-8-OH DPAT) [%],"IC (10-fold shift) ([1]; Oryctolagus cuniculus, 10 min) [µM]",IC50 ([2]; Platelet) [nM],Phenylephrine-Induced Pressor Response ED50 [3] [mg/kg],Inhibit. of 5-HTP-Head Twitch ED50 (serotonin receptors),IC50 (5HT2 [4]) [nM],ED50 (5HT2 [5]) [mg/kg],"Antihypertensive Activity, p.o., % AMAP (maximal change in mean arterial pressure) [6] [%]","Inhibit. of 5-HTP-Head Twitch (result in words) (serotonin receptors; @ 10 (mg/kg, p.o.))","IC50 (5HT1A receptor; rat frontal cortex membranes, 3H-8-OH DPAT, pH 7.4, read-out: Brain 5-HT1 Receptor IC50) [nM]",IC50 (5HT1A receptor) [nM],5-HT-Induced Pressor Response ED50 (5HT2 [5]) [mg/kg],IC (10-fold shift) [1] [nM],IC50 [2] [nM]
"O=c1[nH]c2cscc2c(=O)n1CCN1CCC(=C(c2ccc(F)cc2)c2ccc(F)cc2)CC1 [Example 4, 3-[2-[4-[Bis(4-fluorophenyl)methylene]piperidin-1-yl]ethyl]thieno[3,4-d]pyrimidine-2,4-dione]",20,0.0165,5300,> 10,"≈ 10 mg/kg, p.o.",2.8,0.16,,,,,,,
"O=c1[nH]c2ccsc2c(=O)n1CCN1CCC(=C(c2ccc(F)cc2)c2ccc(F)cc2)CC1 [Example 5, 3-[2-[4-[Bis(4-fluorophenyl)methylene]piperidin-1-yl]ethyl]thieno[3,2-d]pyrimidine-2,4-dione]",3,0.1,1800,> 10,"1.78 mg/kg, p.o.",7,0.017,,,,,,,
"O=c1[nH]c2sccc2c(=O)n1CCN1CCC(=C(c2ccc(F)cc2)c2ccc(F)cc2)CC1 [Example 6, 3-[2-[4-[Bis(4-fluorophenyl)methylene]piperidin-1-yl]ethyl]thieno[2,3-d]pyrimidine-2,4-dione]",24,0.00899,4500,> 3,,0.8,0.23,-13,,,,,,
"O=c1[nH]c2cocc2c(=O)n1CCN1CCC(=C(c2ccc(F)cc2)c2ccc(F)cc2)CC1 [Example 9, 3-[2-[4-[Bis(4-fluorophenyl)methylene]piperidin-1-yl]ethyl]furo[3,4-d]pyrimidine-2,4-dione]",12,0.01,6250,> 10,,4.2,0.02,,Inact.,,,,,
"O=C(c1ccc(F)cc1)C1CCN(CCn2c(=O)[nH]c3cscc3c2=O)CC1 [Example 10, 3-[2-[4-(4-Fluorobenzoyl)piperidin-1-yl]ethyl]thieno[3,4-d]pyrimidine-2,4-dione]",,0.00524,20,< 10,"0.63 mg/kg, p.o.",0.33,0.888,,,12000,,,,
"CC(=O)n1c(=O)n(CCN2CCC(C(=O)c3ccc(F)cc3)CC2)c(=O)c2cscc21 [Example 11, 1-Acetyl-3-[2-[4-(4-fluorobenzoyl)piperidin-1-yl]ethyl]thieno[3,4-d]pyrimidine-2,4-dione]",0,,90,10.0,,12.5,0.029,,,,,,,
"Cn1c(=O)n(CCN2CCC(C(=O)c3ccc(F)cc3)CC2)c(=O)c2cscc21 [Example 14, 3-[2-[4-(4-Fluorobenzoyl)piperidin-1-yl]ethyl]-1-methylthieno[3,4-d]pyrimidine-2,4-dione]",31,,40,< 10,"2.96 mg/kg, p.o.",7,0.018,,,,,,,
"O=C(c1ccc(F)cc1)C1CCN(CCn2c(=O)[nH]c3ccccc3c2=O)CC1 [Ketanserin, reference compound]",,,32,1.08,"0.67 mg/kg, p.o.",,,-33,,,24500,0.013,,
"Cc1nc2sccn2c(=O)c1CCN1CCC(=C(c2ccc(F)cc2)c2ccc(F)cc2)CC1 [Ritanserin, reference compound]",,,,5.36,"0.32 mg/kg, p.o.",,,,,,,0.008,1.0,1200
